Test results: PubChem BioAssay AID588688 (Southern Research Specialized Biocontainment Screening …, 2011)
Active and inactive are the calls of the source.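 The calls were made as follows: active = inhibition of 30% or more at any tested concentration; inactive = the rest.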

Biological target: M17 leucyl aminopeptidase (Plasmodium falciparum 3D7)
Assay: PfM17LAP leucine aminopeptidase inhibitors, dose response, biochemical, QFRET (AID 588688)
Details: recombinant PfM17LAP, H-Leu-NHMec fluorogenic substrate cleavage; for inhibition: at 100 µM (top of the series)

| SMILES | IC50 [µM] | inhibition |
| --- | --- | --- |
| CC1=C(C)CC(C(=O)Nc2nc(-c3cc(C)ccc3C)c(C)s2)C(C(=O)O)C1 (configuration not stated) | 58.8 |  |
| O=C(Cc1ccc2ccccc2c1)NO | 0.79 |  |
| O=C(CSc1nc(O)cc(=O)[nH]1)Nc1ccccc1 | 101 |  |
| O=C(Cc1cccc2ccccc12)NO | 6.11 |  |
| Cc1ccc(NC(=O)CSc2nc(O)cc(=O)n2Cc2ccccc2)cc1 | 33.5 |  |
| COC(=O)c1cc(OC)c(OC)cc1NC(=O)c1sc2nc(C)ccc2c1N |  | inactive |
| N[C@@H](Cc1c[nH]c2ccccc12)C(=O)NO |  | inactive |
| CCn1c2ccccc2c2cc(NC(=O)CSc3nc(C)cc(=O)[nH]3)ccc21 | 10.8 |  |
| CC1=C(C)CC(C(=O)Nc2ccc(Oc3ccc(Cl)cc3)cc2)C(C(=O)O)C1 (configuration not stated) | 46.6 |  |
| COc1ccc(-c2nnc(NC(=O)C3CC(C)=C(C)CC3C(=O)O)s2)cc1 (configuration not stated) | 96.9 |  |
| NC(N)=NCCC[C@H](N)C(=O)NO |  | inactive |
| O=C(CSc1nccc(=O)[nH]1)Nc1ccc(N2CCOCC2)cc1 | 17.5 |  |
| O=C(CSc1ccccc1)Nc1cccc2c1C(=O)NC2=O |  | inactive |
| O=C(CSc1nccc(=O)[nH]1)Nc1ccc(Oc2ccccc2)cc1 | 23.6 |  |
| CC(C)C[C@H](N)C(=O)NO |  | inactive |
| COc1ccc(OCCC(=O)NO)cc1 | 65.6 |  |

Now from value to molecule:

| IC50 [µM] | inhibition | SMILES |
| --- | --- | --- |
|  | inactive | CC1CCc2sc(C(=O)Nc3cccc4c3C(=O)NC4)cc2C1 (configuration not stated) |
|  | inactive | COC(=O)c1ccccc1NC(=O)c1cc2cc3ccc(C)cc3nc2s1 |
| 25.6 |  | COc1cc(NC(=O)CSc2ccccc2)c(C(=O)O)cc1OC |
|  | inactive | COc1cc(NC(=O)c2ccc(-c3ccccc3)cc2)c(C(=O)O)cc1OC |
| 5.13 |  | COC(=O)c1c(NC(=O)C2CC=CCC2C(=O)O)sc(C)c1-c1ccc(C)cc1 (configuration not stated) |
|  | inactive | O=C(O)c1ccccc1C(=O)Nc1nc2c(s1)CCCC2 |
| 17.1 |  | Cc1cc(SCC(=O)Nc2ccccc2C(=O)O)nc2ccccc12 |
|  | inactive | O=C(Nc1ccc(Cl)cc1)Nc1ccccc1C(=O)O |
|  | inactive | COC(=O)c1ccccc1NC(=O)c1ccc2c(Cl)c3c(nc2c1)CCC3 |
|  | inactive | CCC(C)(C)C1CCc2c(sc(NC(=O)C3CC(C)=C(C)CC3C(=O)O)c2C(=O)OC)C1 (configuration not stated) |
|  | inactive | COC(=O)c1c(NC(=O)c2ccccc2C(=O)O)sc2c1CCCC2 |
